Tested on: LTC4-induced contractions of guinea pig lung parenchyma
Assay: Inhibition of LTC4-induced contractions of guinea pig lung parenchyma strips
Design: species or system guinea pig (male Hartley)
Conditions: test compound at 10)M (so in the source); 1×10^-8 M LTC4, compound added 5 min before challenge; footnote c = statistically significant (p = 0.05), Student's t test
Description: The anti-allergy method of this invention is shown by tests which measure a compound's inhibition of contractile responses of strips of lung parenchyma. Male Hartley guinea pigs (600-800 g body weight) were killed by a blow to the head and then exsanguinated. The lungs were inflated with 5 ml. of air through the trachea, the chest cavity opened, and the lungs perfused in situ through the pulmonary artery with Tyrode's solution. The lower lobe of each lung was excised and dissected into four strips (3×10 mm), each of which was suspended in a constant temperature (37° C.) organ bath containing 10 mL of Tyrode's solution and aerated with 95% O2 -5% CO2. Each lung strip was attached to a Harvard isometric muscle transducer and tension was recorded with a Harvard recording module. The initial tension was adjusted to 2 g and the tissues allowed to equilibrate until a steady baseline was reached. […] The peak contractile response to LTC4 was recorded and expressed as a percent of the maximum response (obtained with 1×10^-4 M histamine) of that lung strip. The effect of each test compound is expressed as percent inhibition of the contractile response calculated as follows: [formula]

CCCc1c(OCC(O)COc2ccc3c(=O)cc(C(=O)O)oc3c2CCC)ccc(C(C)=O)c1O (stereo not shown) [FPL 55712]
% Inhibition of LTC4-induced contractions of guinea pig lung parenchyma: 99%

Source: patent publication US5371284A, “Phenyl acetylenic acetals” (Schering Corporation, priority 1993, dated 1994)
